Assay results reported in patent publication US4151291A, “Ethers of 7-hydroxy-coumarin useful as medicaments” (Unicler, priority 1976, dated 1979).

Assays:
oral LD50 = conditions: in vivo
Protocol: In addition the oral LD50 was determined for the compounds of the invention.

[1] = tested on: pain syndrome provoked in mice by injection of phenylbenzoquinone; experiment: analgesia test of Siegmund, Cadmus and Lu (phenylbenzoquinone-induced pain syndrome); assay type: in vivo, mice of Swiss strain; conditions: oral, 30 minutes before phenylbenzoquinone, extensions counted over 10 minutes vs control
Protocol: They have in particular been submitted to the test of analgesia of Siegmund, Cadmus and Lu (Proc. Soc. Exp. Biol. Med. 95, 729, 1957) according to which a characteristic pain syndrome is provoked in mice by injection of phenylbenzoquinone.
The animals used are mice of Swiss strain weighing 20±2 grams.
The animals are separated into groups of 10, randomly but are individually submitted to experiments. Each experiment is carried out on at least two groups:
a control group receiving solvent and phenylbenzoquinone
a group treated with test compound.
The test compounds are administered orally, 30 minutes before the injection of the irritant. Each mouse then receives intraperitoneally 0.25 ml of a 0.02% phenylbenzoquinone solution.
The pain syndrome generated by the injection of phenylbenzoquinone consists of extension of the abdomen and the back legs; at the height of the reaction, the flanks of the animal are very contracted. 5 Minutes after the injection of the irritant, the extensions are counted over a period of 10 minutes.
For each group, the mean number of extensions is calculated. The activity (A) of the test compound is determined by comparison between the mean number of extensions in the treated animals (N) and the mean number of extensions in the control animals (N') according to the equation [formula]
The statistical significance of the result thus obtained is evaluated by the non-parametric test of Fisher.

Question: For C#CCOc1ccc2ccc(=O)oc2c1 [JB 1, 7-Propargyloxy-coumarin], which LD50 (oral LD50) is on record?
Answer: The LD50 was 1500 mg/kg.

Question: And the “Analgesic Activity A” value ([1]; dose 150 mg/kg)?
Answer: Its value is 55%.

Question: Which results are given for C#CCOc1ccc2c(C)cc(=O)oc2c1 [JB 2, 4-Methyl-7-propargyloxy-coumarin]?
Answer: LD50 (oral LD50): 1500 mg/kg; Analgesic Activity A ([1]; dose 150 mg/kg): 98%

Question: What does the source list for C#CCOc1ccc2c(C)c(CC)c(=O)oc2c1 [JB 4, 3-Ethyl-4-methyl-7-propargyloxy-coumarin]?
Answer: LD50 (oral LD50): 1000 mg/kg; Analgesic Activity A ([1]; dose 100 mg/kg): 65%

Question: What does the source list for C#CCOc1ccc2c(-c3ccccc3[N+](=O)[O-])cc(=O)oc2c1 [JB 5, 4-o-nitrophenyl-7-propargyloxy-coumarin]?
Answer: LD50 (oral LD50): > 2000 mg/kg; Analgesic Activity A ([1]; dose 200 mg/kg): 40%

Question: Which results are given for Cc1cc(=O)oc2cc(OCC#CCN3CCOCC3)ccc12 [JB 12, 4-Methyl-7-(4-morpholino-but-2-ynyloxy)-coumarin]?
Answer: LD50 (oral LD50): 1500 mg/kg; Analgesic Activity A ([1]; dose 150 mg/kg): 88%

Question: What does the source list for Cc1cc(=O)oc2cc(OCC#CCN(C)C)ccc12 [JB 16, 4-Methyl-7-(4-dimethylamino-but-2-ynyloxy)-coumarin]?
Answer: LD50 (oral LD50): 500 mg/kg; Analgesic Activity A ([1]; dose 50 mg/kg): 30%

Question: What does the source list for C#CCOc1ccc2c(C)c(CC=C)c(=O)oc2c1 [JB 19, 3-Allyl-4-methyl-7-propargyloxy-coumarin]?
Answer: LD50 (oral LD50): 1500 mg/kg; Analgesic Activity A ([1]; dose 150 mg/kg): 81%
